What was measured:
[1] = XAFS measurement and analysis (coordination number); format: physicochemical; conditions: for comparison
Procedure: The XAFS analysis of the complex (R)-11 was performed at Spring-8.
Specifically, the number of the coordinated water molecules was estimated by removing background from XAFS spectra and performing fitting using Fourier transformation or Fourier inverse transformation.
Further, the XAFS spectra were obtained by a transmission method using an ion chamber for a pellet (in a powder state) of the complex ((R)-11) and a fluorescence method using a multi-element semiconductor detector for an aqueous solution of the complex ((R)-11), respectively.
When fitting was performed without fixing the proximal coordination number to 9, the following results were obtained. In a powder state, the coordination number of O was 6.99 and the distance between atoms of Gd and O was 2.421 Å, and in an aqueous solution (3 mM) the coordination number of O was 9.77 and the distance between atoms of Gd and O was 2.430 Å.

[2] = T1 relaxation time measurement by 7T MRI (inversion recovery FISP); format: physicochemical; conditions: 1.3 mM in ultrapure water, 24° C.
Procedure: The T1 relaxation time measurement by MRI was performed using a 7T MRI apparatus (BioSpec 70/20 manufactured Bruker Biospin K.K.). The T1 relaxation time was measured under the measurement conditions of TR/TE 3/1.5 ms, FOV=8*4 cm, matrix=128*128, NA=2 and a temperature of 24° C. using an inversion recovery FISP method. Aqueous solutions of six different concentrations (1.3 mM, 0.65 mM, 0.325 mM, 0.13 mM, 0.026 mM and 0.013 mM) were prepared by dissolving complex (R)-11 in ultrapure water, and each of the aqueous solutions was placed into an Eppendorf tube and used directly as a measurement sample.
The T1 relaxation time was measured in the same manner as in Example 5. A GdCl3 aqueous solution was prepared by dissolving commercially available GdCl3.6H2O in ultrapure water so that the concentration was adjusted to 1.3 mM, and Gd (DTPA) aqueous solutions were prepared by diluting a commercially available Gd (DTPA) aqueous solution (630 mM) with ultrapure water so that the concentration was adjusted to 2.0, 1.3, 1.0, 0.5 and 0.25 mM, respectively. Each of the aqueous solutions was placed into an Eppendorf tube and used directly as a measurement sample.

[3] = T1 relaxation time measurement by 500 MHz NMR in FBS solution; format: physicochemical; conditions: FBS 80%, heavy water 10%, H2O 10%; otherwise as Example 4 / Comparative Example 1 (500 MHz NMR)
Procedure: The T1 time was measured in the same manner as in Example 4 except that the NMR measurement sample was changed to an FBS (fetal bovine serum) solution of the complex (R)-11 (FBS concentration: 80%, heavy water concentration: 10%, H2O concentration: 10%).
The T1 time was measured in the same manner as in Comparative Example 1 except that the NMR measurement sample was changed to an FBS (fetal bovine serum) solution of GdCl3 or Gd (DTPA) (FBS concentration: 80%, heavy water concentration: 10%, H2O concentration: 10%).

[4] = aqueous solutions of 2.0, 1.0, 0.5 and 0.25 mM, saturation recovery spin echo, 24° C.
[5] = T1 relaxation time measurement by 500 MHz NMR (aqueous solution); format: physicochemical; conditions: 0.13 mM aqueous solution, 10% heavy water, 27° C., inversion recovery
Procedure: The T1 relaxation time measurement was performed using a broadband probe on a 500 MHz NMR apparatus (Avance 500 manufactured by Bruker Biospin K.K.). The T1 relaxation times were measured at 27° C. using an inversion recovery method.
First, a Gd triamine 2nd G-12-ol-dendrimer complex (R)-11 was dissolved in 1 ml of ultrapure water to prepare an aqueous solution in which the concentration of complex (R)-11 was 24.05 mM. In addition, the concentration of complex (R)-11 was determined from the Gd concentration by inductive coupled plasma emission spectrometry (ICP emission spectrometry). Next, the aqueous solution was diluted with ultrapure water and heavy water so that the concentration of complex (R)-11 was 0.13 mM and the concentration of heavy water was 10%, and the resulting aqueous solution was used as an NMR measurement sample. […] The data shown in FIG. 1 clarified that the T1 time of water of the complex (R)-11 aqueous solution was 429 ms.
The T1 relaxation time was measured in the same manner as in Example 4. […] The T1 relaxation time of water for the Gd (DTPA) aqueous solution sample determined from the data shown in FIG. 2 was 1333 ms, which is considerably longer than the T1 relaxation time of complex (R)-11.

coordination number of water molecule [1]	T1 relaxation ability r1 [4] [L/mmol/s]	SMILES	T1 [2] [ms]	T1 time of water for FBS solution [3] [ms]	T1 relaxation time of water [5] [ms]
1	–	O=C([O-])CN1CCN(CC(=O)[O-])CCN(CC(=O)O)CCN(CC(=O)[O-])CC1.[Gd+3] [Gd (DOTA), reference compound]	–	–	–
1	4.661	O=C([O-])CN(CCN(CC(=O)[O-])CC(=O)O)CCN(CC(=O)[O-])CC(=O)O.[Gd+3] [Gd (DTPA)]	205.653	1429	1333
–	–	[Cl][Gd]([Cl])[Cl] [GdCl3]	58.991	1708	712

Source: patent US9115153B2, “Aza metal complexes” (Canon Kabushiki Kaisha, priority 2007, dated 2015)
